Activity calls are given as the source filed them.
Assays:
Type in all cases: functional, organism-based
Escherichia coli = test: Antimicrobial activity against Escherichia coli ATCC 25922 assessed as inhibition of visible growth measured after 16 to 20 hrs by broth microdilution method
Bacillus subtilis = test: Antimicrobial activity against Bacillus subtilis SCSIO BS01 assessed as inhibition of visible growth measured after 16 to 20 hrs by broth microdilution method
Bacillus thuringiensis = test: Antimicrobial activity against Bacillus thuringiensis SCSIO BT01 assessed as inhibition of visible growth measured after 16 to 20 hrs by broth microdilution method
Enterococcus faecalis = test: Antimicrobial activity against Enterococcus faecalis ATCC 29212 assessed as inhibition of visible growth measured after 16 to 20 hrs by broth microdilution method
Staphylococcus aureus = test: Antimicrobial activity against Staphylococcus aureus ATCC 29213 assessed as inhibition of visible growth measured after 16 to 20 hrs by broth microdilution method
Micrococcus luteus = test: Antimicrobial activity against Micrococcus luteus SCSIO ML01 assessed as inhibition of visible growth measured after 16 to 20 hrs by broth microdilution method
Candida albicans = test: Antimicrobial activity against Candida albicans ATCC 10231 assessed as inhibition of visible growth measured after 16 to 20 hrs by broth microdilution method

Measured: Activity

CC[C@H](C)[C@H](NC(=O)[C@@H](CC(C)C)NC(=O)[C@H](NC(=O)[C@@H](NC(=O)[C@H](N)C(C)C)C(C)C)C(C)C)C(=O)N[C@@H](Cc1ccc(O)cc1)C(=O)O
inactive: all assays above

CC(C)C[C@@H](NC(=O)[C@H](NC(=O)[C@@H](NC(=O)[C@H](N)C(C)C)C(C)C)C(C)C)C(=O)N[C@H](C(=O)N[C@@H](Cc1ccc(O)cc1)C(=O)O)C(C)C
inactive: all assays above

CC[C@H](C)[C@@H]1NC(=O)[C@@H](CC(C)C)NC(=O)[C@@H](C(C)C)NC(=O)[C@H](C(C)C)NC(=O)[C@@H](C(C)C)NC(=O)[C@H](Cc2ccc(O)cc2)NC1=O
inactive: all assays above

CC(C)C[C@H]1NC(=O)[C@@H](C(C)C)NC(=O)[C@H](C(C)C)NC(=O)[C@@H](C(C)C)NC(=O)[C@H](Cc2ccc(O)cc2)NC(=O)[C@H](C(C)C)NC1=O
inactive: all assays above

— ChEMBL document CHEMBL2331447, “Nocardiamides A and B, two cyclohexapeptides from the marine-derived actinomycete Nocardiopsis sp. CNX037” (J Nat Prod, 2013)
